This note sets out measurements from patent US10472334B2, “Small molecules for inhibiting male fertility” (The University of North Carolina at Chapel Hill, priority 2014, dated 2019).

Molecules are shown by their SMILES. Like-named read-outs stand apart in the source and are kept apart here.

Holding throughout (assay type): cell-based
The nature of series [1]: In vitro toxicity, cell viability. As for the experimental part: The percent of control activity was calculated by comparing the fluorescence reading in the presence of test compound to that in the absence of a test (control) compound. Subsequently, the percent of inhibition was calculated by subtraction of the percent of control value from 100. IC50 values were determined by non-linear regression analysis of the concentration-response curves. These parameters are obtained by Hill equation curve fitting. See, for example, Nociari, M. M. et al. (1998), J. Immunol. Meth., 213: 157-167.

In series [2] the test system is human spermatozoa. Briefly: Intracellular free calcium in Fluo-4 loaded spermatozoa. As for the experimental part:
(§1) A series of experiments was performed to determine the mechanism of action of the compounds described herein. The experiments were carried out as described in O'Rand and Widgren, “Loss of Calcium in Human Spermatozoa via EPPIN, the Semenogelin Receptor,” Biology of Reproduction, (2012) 86(2):55, 1-7.
Fluo-4 AM-loaded spermatozoa were pipetted into 96-well black-walled plates (Perkin Elmer, Waltham, Mass.) at 1.13105-0.93105 spermatozoa/well in 50 μl of M16M at 378 C, and read in a BioTek (Winookski, Vt.) Synergy2 Multiplatform automated plate reader (with heater and shaker). Wells were excited using a 485/20 filter, and emission was read with a 528/20 filter, and data were acquired using a kinetic modification of the Alexafluor 488 protocol in the Gen5 software program (BioTek). […] After treatment of spermatozoa in each well with control or test reagents was completed (10-15 min), the Fluo-4 in the spermatozoa in each well was calibrated by adding ionomycin (2.5 μM), followed 15 min later by the addition of Mn^2 (2 mM MnCl2) to bring the fluorescence (F) to 30% of that of the saturated dye. […] Using these values for each well, the Fmax and Fmin were calculated according to the method of Kao et al. [Kao et al., J Biol Chem. 1989; 264:8179-8184.].
Fluorescence measurements were converted to calcium concentration according to the equation [Ca^2+]=Kd([F−Fmin]/[Fmax−F]) […]

In series [3] the test system is human spermatozoa. Briefly: Internal sperm pH detection with BCECF. The conditions noted are these: FIG. 6, 10 and 20 μM. As for the experimental part:
as §1
The AM ester derivative of the pH-sensitive dye BCECF (5 μM; Molecular Probes) was used to detect changes in the pH in spermatozoa treated with SEMG1. Spermatozoa were loaded with BCECF-AM for 30 min in bovine serum albumin-free medium, centrifuged to remove extracellular dye, and resuspended in M16M. Changes to 1.13105-0.93105 spermatozoa/well in 50 μl of M16M at 378 C after treatment with 3.2 μM SEMG1 were monitored in a BioTek (Winookski, Vt.) Synergy2 Multiplatform automated plate reader (with heater and shaker); wells were excited using a 485/20 filter and emission read with a 528/20 filter. Fluorescence was read immediately and recorded every 10 sec; readings for each time point were normalized, averaged, and expressed as percentages of decrease in relative fluorescent units. Data from three ejaculate samples are reported.

As a reminder, the IC50 is the concentration needed to halve the response being measured. Regarding `CCOC(=O)CSc1nc(NNC(=O)OC)nc(Nc2ccc(NC(=O)OC)c(O)c2)n1` [TZ4_121, [4-(3-Hydroxy-4-methoxycarbonylamino-phenylamino)-6-(N′methoxycarbonyl-hydrazino)-1,3,5-triazin-2-ylsulfanyl]-acetic acid ethyl ester], the IC50 was about 17 µM in series [1] (FIG. 2, read-out: cell viability IC50) and about 20 µM in series [1] (read-out: In vitro toxicology IC50). In addition, the “change in intracellular calcium of spermatozoa” value in the series with human spermatozoa [2] is on record as “significant loss of calcium”. The “change in internal sperm pH” value in the series with human spermatozoa [3] is on record as “significant decrease in pH”.
